Here are results for five molecules from ChEMBL document CHEMBL1151229, “Isolation and structure of gustastatin from the Brazilian nut tree Gustavia hexapetala” (2004).

In brackets after ≈: the same amount, converted by molar mass.

Common to all, as to format: functional
One assay relates to SF-268. Briefly: Cytotoxicity against human SF268 cells.
Another assay relates to MCF7. The assay can be described thus: Cytotoxicity against human MCF7 cells.
A further assay deals with P388. The assay can be described thus: Cytotoxicity against mouse P388 cells.
In the next assay the test system is NCI-H460. Briefly: Cytotoxicity against human NCI-H460 cells.
A further assay relates to BXPC-3. Briefly: Cytotoxicity against human BxPC3 cells.
A further assay has as its system DU-145. The assay can be described thus: Cytotoxicity against human DU145 cells.
A further assay deals with KM-20L2. Briefly: Cytotoxicity against human KM20L2 cells.

In the case of `C=C(C)[C@@H]1CC[C@]2(C(=O)O)CC[C@]3(C)[C@H](CC[C@@H]4[C@@]5(C)CC[C@H](O)C(C)(C)[C@@H]5CC[C@]43C)[C@@H]12` [BETULINIC ACID], the concentration for 50% growth inhibition (GI50) (as a rule, the concentration that inhibits growth by half) in the assay on SF-268 was 0.86 µg/mL (≈ 1.88 µM); in the assay with MCF7, 1.1 µg/mL (≈ 2.41 µM); in the assay with P388, more than 10 µg/mL; with NCI-H460, 4.7 µg/mL (≈ 10.3 µM); in the assay on BXPC-3 it was 0.85 µg/mL (≈ 1.86 µM); in the assay on DU-145 it was 5 µg/mL (≈ 10.9 µM). In addition, it took 3.4 µg/mL (≈ 7.44 µM) to inhibit growth in the assay on KM-20L2 by half (GI50).
Take `CCCCCC(=O)Cc1cc(OC)cc(O)c1C(=O)Oc1cc(CC(=O)CCCCC)c(C(=O)OC)c(OC)c1` [GUSTASTATIN]: the GI50 in the assay on SF-268 was 7.9 µg/mL (≈ 14.2 µM); in the assay with MCF7 it was 6.4 µg/mL (≈ 11.5 µM); with P388, more than 10 µg/mL; with NCI-H460, 5.1 µg/mL (≈ 9.16 µM); in the assay with BXPC-3, more than 10 µg/mL; in the assay with DU-145, 5.2 µg/mL (≈ 9.34 µM). This molecule also gave a GI50 with KM-20L2 of more than 10 µg/mL.
As for `COc1cc(C)c2c(=O)c3c(O)cc(OC)cc3oc2c1` [LICHEXANTHONE], the GI50 is 3 µg/mL (≈ 10.5 µM) with SF-268; 4.1 µg/mL (≈ 14.3 µM) with MCF7; more than 10 µg/mL with P388; 7.1 µg/mL (≈ 24.8 µM) in the assay on NCI-H460; 2.5 µg/mL (≈ 8.73 µM) with BXPC-3; 3.7 µg/mL (≈ 12.9 µM) in the assay with DU-145. For the same molecule, in the assay on KM-20L2, the 50% growth inhibitory concentration (GI50) was determined as 2 µg/mL (≈ 6.99 µM).
`C[C@H]1[C@@H](O)[C@@H](C)[C@@]2(O[C@@H]1C)[C@@H](C)[C@H]1OC(=O)[C@]2(C)C(=O)[C@@H]1C` [PORTENTOL]: the GI50 is 4.7 µg/mL (≈ 15.1 µM) in the assay with SF-268; more than 10 µg/mL in the assay with MCF7; more than 10 µg/mL in the assay on P388; 4.7 µg/mL (≈ 15.1 µM) in the assay on NCI-H460; 7 µg/mL (≈ 22.6 µM) in the assay on BXPC-3; 1.3 µg/mL (≈ 4.19 µM) in the assay with DU-145. In the assay on KM-20L2, this molecule gave a GI50 of more than 10 µg/mL.
With `CC1(C)C=Cc2cc3ccc(=O)oc3cc2O1` [XANTHYLETIN], the GI50 is 11.2 µg/mL (≈ 49.1 µM) in the assay on SF-268; 5.9 µg/mL (≈ 25.8 µM) in the assay with MCF7; more than 10 µg/mL in the assay with P388; 9 µg/mL (≈ 39.4 µM) in the assay with NCI-H460; 5.5 µg/mL (≈ 24.1 µM) in the assay on BXPC-3; 2.9 µg/mL (≈ 12.7 µM) with DU-145. In the assay on KM-20L2, this molecule came in with a concentration for 50% growth inhibition (GI50) of 6.3 µg/mL (≈ 27.6 µM).
